According to publication PMC7898037, “Improving mitochondria and ER stability helps eliminate upper motor neuron degeneration that occurs due to mSOD1 toxicity and TDP‐43 pathology” (Clinical and Translational Medicine, 2021):

What was measured:
[1] = system: UMNs of prpTDP‐43^A315T‐UeGFP mice; assay: EM quantification of mitochondria and ER in UMNs, prpTDP‐43^A315T‐UeGFP mice; assay type: in vivo
Method: (§1) hSOD1^G93A‐UeGFP, prpTDP‐43^A315T‐UeGFP and WT‐UeGFP mice were weighed and the required NU‐9 dose per weight was calculated (20 or 100 mg/kg), which was administered once daily by oral gavage, starting at postnatal day (P)60 and continuing until P120. Animals from the untreated group received the vehicle (NMP and olive oil) only. For oral administration purposes, 20 ga × 38 mm plastic feeding tubes were used (Instech Laboratories, Inc). The gavage tip was inserted into the mouth directly over the tongue and into the pharynx. While observing the swallowing reflex, the tip was safely and smoothly slid into the esophagus. Once the administration was completed, the gavage tip was pulled straight out.
Mice were perfused with EM grade 4% PFA. One hemisphere of the brain was sectioned at 50 µm thickness coronally on a vibratome (Leica VT1000S, Leica Inc., Nussloch, Germany). The sections were postfixed in 2% PFA and 0.5% glutaraldehyde for 1 h, they were cryoprotected with glycerol–dimethylsulfoxide (DMSO) mixture followed by freeze–thaw at least four times, and treated with 1% sodium borohydride. They were then treated with 0.3% H2O2–10% methanol in TBS (100 mM Tris–HCl and 150 mM NaCl, pH 7.6) and 5% normal goat serum–1% bovine serum albumin in TBS to block nonspecific binding of primary antibody. This mixture was incubated overnight with rat anti‐Ctip2 antibody (1:500, Thermo Fisher Scientific, Rockford, IL, USA). Biotinylated goat anti‐rat IgG (1:500, Vector Laboratories, Burlingame, CA, USA) was used as the secondary antibody, and diaminobenzidine (DAB) was applied as the chromogen (ABC Elite kit, Vector Laboratories, Burlingame, CA, USA). Sections were then postfixed in buffered 2% osmium tetroxide (OsO4) (Electron Microscopy Sciences, Hatfield, PA, USA), rinsed with distilled water, and stained in 1% uranyl acetate (Electron Microscopy Sciences, Hatfield, PA, USA), again rinsed with distilled water, dehydrated in ascending grades of ethanol with transition fluid propylene oxide (Electron Microscopy Sciences, Hatfield, PA, USA), embedded in the resin mixture with Embed 812 (Electron Microscopy Sciences, Hatfield, PA, USA), and cured in a 60°C oven for 3 days. The sections in which primary motor cortex was present and visible under bright‐field illumination on a dissecting scope were selected. Approximately, 5‐mm‐wide × 7‐mm‐long pieces of the motor cortex from these sections were dissected under the microscope mounted on a resin block and were sectioned on a Leica Ultracut UC6 ultramicrotome (Leica Inc., Nussloch, Germany). The motor cortex was further trimmed, and only layer 5 was kept intact for preparing ultrathin sections. UMNs were identified based on the presence of Ctip2 immunohistochemistry (DAB) in their nuclei (Figure S1). Seventy‐nanometer‐thin sections were collected on 200‐mesh copper–palladium grids. Grids were counterstained with 8% radioactive depleted uranyl acetate and 0.2% lead citrate. Grids were examined on FEI Tecnai Spirit G2 TEM (FEI company, Hillsboro, OR, USA), and digital images were captured on a FEI Eagle camera.
EM images of Betz cells of normal control and patients, Ctip2‐positive (Ctip2^+) UMN of WT, and hSOD1^G93A‐UeGFP and prpTDP‐43^A315T‐UeGFP mice (Figure S1) were acquired from 70‐nm ultrathin sections of the motor cortex, and EM images were taken on FEI Tecnai Spirit G2 TEM using FEI Eagle camera. Mitochondria were quantified, as described previously. ^34 Mitochondria with intact outer and inner membrane and with intact cristae were considered healthy. Mitochondria with morphological defects, such as broken outer and/or inner membrane and cristae, were counted individually and were reported as percentage of defective mitochondria. ER that are disintegrated and that display profound expansion were considered unhealthy. Length of ER cisternae was measured using line tool of ImageJ software (NIH) upon calibration for pixels/micrometer using set scale function. […]

[2] = system: UMN apical dendrites of hSOD1^G93A‐UeGFP mice; assay: UMN apical dendrites with vacuoles, hSOD1^G93A‐UeGFP mice; assay type: in vivo; settings: for Mean, Fig. 4G (UMN apical dendrites with vacuoles): hSOD1G93A-UeGFP mice; for percentage of UMNs with vacuolated apical dendrites: hSOD1^G93A‐UeGFP mice
Method: as §1
Mice were deeply anesthetized using ketamine (90 mg/kg) with xylazine (10 mg/kg), and transcardially perfused with 4% PFA in PBS. The brains were removed intact and postfixed (4% PFA, overnight) and stored in PBS with sodium azide (0.01%) at 4°C. Sections were cut in a coronal (50 µm) plane using a vibratome (Leica) and processed for immunocytochemical analyses.
The antibodies used are as follows: anti‐GFP (1:1000, Invitrogen; or 1:1000, Abcam) and anti‐misfolded SOD1 (B8H10, 1:250, Médimabs). Briefly, sections were treated with blocking solution (PBS, 0.05% BSA, 2% FBS, 1% Triton X‐100, and 0.1% saponin) for 30 min at room temperature and incubated with primary antibody diluted in blocking solution overnight at 4°C. Appropriate secondary fluorescent antibodies (1:500, AlexaFluor‐conjugated, Invitrogen) were added to the blocking solution at room temperature for 2 h in the dark.

[3] = system: SOD1^G93A‐expressing PC12 cell; settings: in vitro potency; read-out: EC50 (protein aggregation/toxicity); cited from earlier work
[4] = prpTDP-43A315T-UeGFP mice, NU-9 100 mg/kg/day
[5] = prpTDP-43A315T-UeGFP untreated minus NU-9 100 mg/kg/day, Tukey's multiple comparisons test
[6] = prpTDP‐43^A315T‐UeGFP mice, 100 mg/kg/day oral gavage P60–P120

## C[C@H](Oc1cc(C(F)(F)F)cc(C(F)(F)F)c1)C1CC(=O)CC(=O)C1 [NU‐9]
[1]; prpTDP43A315T-UeGFP untreated minus NU-9 100 mg/kg/day, Tukey's multiple comparisons test
  Mean Diff., Fig. 6J, TDP-43 vs. TDP-43 -NU9: -0.8333
[1]; prpTDP-43A315T-UeGFP (NU-9 100 mg/kg/day)
  Fig. 6G group mean (total number of mitochondria/UMN): 31.85
[1]; [4]
  Mean, Fig. 6H (EM quantification in UMNs): 86.77
  Mean, Fig. 6I (EM quantification in UMNs): 31.16
  Mean, Fig. 6J (EM quantification in UMNs): 1.37
[1]; [5]
  Mean Diff., Fig. 6H, TDP-43 vs. TDP-43 -NU9: -64.89
  Mean Diff., Fig. 6I, TDP-43 vs. TDP-43 -NU9: -18.7
[1]; [6]
  average number of intact ER cisternae in UMNs: 36 ± 2 ER cisternae/UMN/section
  average percentage of healthy mitochondria: 87% ± 1%
  total mitochondria per UMN per section: 32 ± 3 mitochondria/UMN/section
[2]; NU-9 20 mg/kg/day
  Mean, Fig. 4G (UMN apical dendrites with vacuoles): 43.86
[2]; NU-9 100 mg/kg/day
  Mean, Fig. 4G (UMN apical dendrites with vacuoles): 23.28
[2]; hSOD1G93A-UeGFP vehicle minus NU-9 20 mg/kg/day, Tukey's multiple comparisons test
  Mean Diff., Fig. 4G, GS Vehicle vs. GS NU-9 (20): 32.38
[2]; hSOD1G93A-UeGFP vehicle minus NU-9 100 mg/kg/day, Tukey's multiple comparisons test
  Mean Diff., Fig. 4G, GS Vehicle vs. GS NU-9 (100): 52.96
[2]; 20 mg/kg/day oral gavage P60–P120
  percentage of UMNs with vacuolated apical dendrites: 44% ± 7%
[2]; 100 mg/kg/day oral gavage P60–P120
  percentage of UMNs with vacuolated apical dendrites: 23% ± 10%
[3]
  EC50: 0.3 µM
